Results published in patent publication US10603298B2, “Succinate dehydrogenase inhibitors (SDHi's)” (Medical Research Council, priority 2014, dated 2020).

How the values were obtained:
[1] = system: mouse heart IR injury (myocardial infarction); assay: In vivo mouse cardiac IR injury (LAD ligation), infarct size by triphenyltetrazolium chloride staining; conditions: i.v. infusion 4 mg/kg/min prior to and throughout ischaemia
Procedure: For the in vivo heart IR model an open-chest, in situ heart model was used^31,32. Male mice (8-10 weeks; Charles River Laboratories, UK) were anaesthetised with sodium pentobarbital (70 mg/kg intraperitoneally (i.p.)), intubated endotracheally and ventilated with 3 cm H2O positive-end expiratory pressure. Adequacy of anaesthesia was monitored using corneal and withdrawal reflexes. Ventilation frequency was kept at 110 breaths per minute with tidal volume between 125-150 μL. A thoracotomy was performed and the heart exposed by stripping the pericardium. A prominent branch of the left anterior descending coronary artery (LAD) was surrounded by a 7-0 Prolene suture that was then passed through a small plastic tube. Ischaemia was induced by tightening the tubing against the heart surface. To assess metabolites during IR in vivo, mice were divided into three groups: 30 min ischaemia, 30 min ischaemia plus 5 min reperfusion and 30 min sham-operation in which the suture was placed but the LAD was not occluded. At the end of each protocol tissue was removed from the at risk and peripheral areas of the heart, selected visually by comparing white versus red tissue, and snap-frozen in liquid nitrogen. […] Infarct size was assessed after 30 min of ischaemia followed by 120 min reperfusion using 2% triphenyltetrazolium chloride staining and is expressed as a percentage of the risk zone^33. […]

[2] = system: adult primary rat cardiomyocytes; assay: Mitochondrial membrane potential (TMRM) in primary cardiomyocytes during in situ IR; assay type: cell-based; conditions: 4 mM in ischaemic buffer
Procedure: FIG. 15: Tracking mitochondrial membrane potential in primary cardiomyocytes during in situ IR. Primary rat cardiomyocytes were subjected to 40 min ischaemia and reoxygenation and mitochondrial membrane potential was tracked throughout the experiment by measurement of tetramethylrhoadmine (TMRM) fluorescence. […] Average traces from at least three replicate experiments are shown. (a) TMRM signal throughout the entire experiment.
Male Sprague-Dawley rats (300-370 g) were terminally anaesthetised via IP injections of 200 mg/kg sodium pentobarbitone and 330 U/kg heparin. Hearts were excised and retrograde perfused on a Langendorff-perfusion system with 13 mL/min oxygenated KH buffer at 37° C. […]
Cells were imaged within 36 hours of plating. […] Simulated ischaemia was achieved by replacing the buffer with a pre-gassed, hypoxic recording buffer simulating ischaemia (as above but lacking glucose and containing 10 mM sodium lactate, 14.8 mM KCl; pH 6.4) and by covering the heated stage with a transparent, gas-impermeant lid, forming a small chamber into which argon was forced to maintain hypoxia. pO2 was routinely measured as <2.0 mm Hg during simulated ischaemia. […]
Mitochondrial membrane potential was measured using tetramethylrhodamine, methyl ester (TMRM, Life Technologies) in dequench mode. […] TMRM fluorescence was excited at 543 nm and emission was collected using a LP 560 filter.

[3] = administered orally; cited from earlier work

Structure (SMILES): COC(=O)CC(=O)OC [dimethyl malonate]
- protection against cardiac IR injury (infarct size) [1]: protective
- rate of mitochondrial polarisation upon reperfusion [2]: diminished the rate of mitochondrial polarisation upon reperfusion
- LD50 [3]: approximately 5 gms per kilogram
